Laboratory results taken from patent US8362256B2, “Salts of N-[4-(1-cyanocyclopentyl)phenyl]-2-(4-pyridylmethyl)amino-3-pyridinecarboxamide” (Jiangsu Hengrui Medicine Co. Ltd., priority 2008, dated 2013).
Marks after values point to notes of the source that are not given here.

Assays:
[1] = Stability in different conditions, content by HPLC; format: physicochemical
human colon cancer HT-29 = assay: Efficacy on human colon cancer HT-29 transplanted in nude mice; conditions: for Weight after Removing Tumor, d0 / TV x ± SD, d0: d0 baseline; for RTV x ± SD / T/C / TV x ± SD, dn: dn 21 days; for Weight after Removing Tumor, dn: dn 21 days after first administration
Description: BALB/cA-nude mice, ♀, 5-6 weeks-old, purchased from Shanghai Slaccas experimental animals limited liability company. […] Rearing environment: SPF grade.
After one week adaption, the experimental animals were subcutaneously inoculated with human colon cancer HT-29 tumor tissues. When the tumors grew to 100-300 mm^3, the animals were randomly divided into several groups. […] Volume of tumors and weight of mice were measured 2-3 times every week, the data of which were recorded. The equation for the calculation of volume of tumors (V) is: V=½×a×b^2 wherein a, b represent length and width, respectively.

Solubility = format: physicochemical
[2] = 50 mg/kg p.o. once daily d0-d20
[3] = 100 mg/kg p.o. once daily d0-d20
[4] = 200 mg/kg p.o. once daily d0-d20

N#CC1(c2ccc(NC(=O)c3cccnc3NCc3ccncc3)cc2)CCCC1 [Mesylate of compound A]
stability (conclusion of stability experiments) [1]: most stable | content after 6 Months Under Light ([1]; HPLC, initial purity 99.6%): 99.5% | content after 6 Months at 60° C. ([1]; HPLC, initial purity 99.6%): 98.4% | content after 6 Months at Room Temperature ([1]; HPLC, initial purity 99.6%): 99.5% | Weight after Removing Tumor, d0 (human colon cancer HT-29; [2]): 16.1 g | RTV x ± SD (human colon cancer HT-29; [2]): 5.42 ± 1.55 | T/C (human colon cancer HT-29; [2]): 62.5% | TV x ± SD, dn (human colon cancer HT-29; [2]): 1250 ± 256 | Weight after Removing Tumor, dn (human colon cancer HT-29; [2]): 14.3 g | TV x ± SD, d0 (human colon cancer HT-29; 50 mg/kg p.o.): 239 ± 49 | Weight after Removing Tumor, d0 (human colon cancer HT-29; [3]): 17.0 g | RTV x ± SD (human colon cancer HT-29; [3]): 3.78 ± 1.46 | T/C (human colon cancer HT-29; [3]): 43.6^a % | TV x ± SD, dn (human colon cancer HT-29; [3]): 998 ± 296 | Weight after Removing Tumor, dn (human colon cancer HT-29; [3]): 16.4 g | TV x ± SD, d0 (human colon cancer HT-29; 100 mg/kg p.o.): 272 ± 37 | Weight after Removing Tumor, d0 (human colon cancer HT-29; [4]): 16.3 g | RTV x ± SD (human colon cancer HT-29; [4]): 2.21 ± 0.52 | T/C (human colon cancer HT-29; [4]): 25.5^a % | TV x ± SD, dn (human colon cancer HT-29; [4]): 571 ± 147 | Weight after Removing Tumor, dn (human colon cancer HT-29; [4]): 15.6 g | T/C (human colon cancer HT-29; 200 mg/kg p.o. once daily d0-d20, listed as mesylate of compound A): 25.5% | TV x ± SD, d0 (human colon cancer HT-29; 200 mg/kg p.o.): 260 ± 39 | tolerance (human colon cancer HT-29; mouse, in vivo, po): well tolerated | Solubility in water (Solubility): Insoluble
